Source: patent US20200085868A1, “Method For Treating Cancer” (China Medical University Hospital, priority 2018, published 2020)
“Also recorded” adds a separate entry of the source.

Key:
Type in all cases: cell-based
[1] = tested on: HLA-G expression of the human malignant brain tumor cell line DBTRG; test: HLA-G expression of tumor cells treated with chemotherapy drug, flow cytometry; conditions: temozolomide 80 μg/mL, 48 hours, control 14.01%
Procedure: (§1) To investigate effect of the treatment of the chemotherapy drug on the tumor cells, the tumor cells are treated with the chemotherapy drug, and then detecting the HLA-G expression level of the tumor cells.
(§2) The tumor cells used are human breast cancer cell line MDA-MB-231, human malignant brain tumor cell line DBTRG-05MG (hereinafter referred to as DBTRG), human pancreatic cancer cell line AsPC1, and human ovarian cancer cell line SKOV3. The tumor cell lines used are all purchased from the American Type Culture Collection (ATCC). The human breast cancer cell line MDA-MB-231 is a triple-negative breast cancer cell line, that is, the hormone receptor (ER, PR) and HER-2 receptor thereof are negative, and the human breast cancer cell line MDA-MB-231 is cultured in RPMI culture medium containing 10% fetal bovine serum (FBS). The human malignant brain tumor cell line DBTRG is cultured in DMEM culture medium containing 10% FBS. […]
(§3) First, the human breast cancer cell line MDA-MB-231, the human malignant brain tumor cell line DBTRG, the human pancreatic cancer cell line AsPC1 and the human ovarian cancer cell line SKOV3 are seeded in a 6-well plate at a density of 2×10^5 cells/well. […] Then, the HLA-G expression level of the tumor cells are detected by immunofluorescence staining assay and flow cytometry.

[2] = tested on: HLA-G expression level on the plasma membrane of the human ovarian cancer cell line SKOV3; test: HLA-G expression level of tumor cells treated with chemotherapy drug, immunofluorescence staining assay; conditions: SKOV3, carboplatin 20 μM, 48 hours, vs untreated control
Procedure: as §1, §2, §3

[3] = tested on: HLA-G expression of the human ovarian cancer cell line SKOV3; test: HLA-G expression of tumor cells treated with chemotherapy drug, flow cytometry; conditions: SKOV3, carboplatin 20 μM, 48 hours; control 14.69%
Procedure: (§4) The human ovarian cancer cell line SKOV3 is cultured in McCoy's 5A culture medium containing 10% FBS.
(§5) First, the human breast cancer cell line MDA-MB-231, the human malignant brain tumor cell line DBTRG, the human pancreatic cancer cell line AsPC1 and the human ovarian cancer cell line SKOV3 are seeded in a 6-well plate at a density of 2×10^5 cells/well. The cells are subsequently incubated for 24 hours. […] In a control, the tumor cells are untreated.
(§6) Please refer to FIGS. 2A, 2B, 2C, 2D and 2E, which are analytical results of flow cytometry showing a HLA-G expression of tumor cells treated with a chemotherapy drug. FIG. 2A is analytical result of flow cytometry of the human breast cancer cell line MDA-MB-231. FIG. 2B is analytical result of flow cytometry of the human malignant brain tumor cell line DBTRG. FIG. 2C is analytical result of flow cytometry of the human pancreatic cancer cell line AsPC1. FIG. 2D is analytical result of flow cytometry of the human ovarian cancer cell line SKOV3. FIG. 2E is a statistical chart of FIGS. 2A, 2B, 2C and 2D.

[4] = tested on: human ovarian cancer cell line SKOV3; test: Tumor cell death (cytotoxicity), Annexin V-FITC and PI staining, flow cytometry; conditions: group 1: chemotherapy drug alone, carboplatin 20 μM; control less than 10%
Procedure: (§7) First, the human breast cancer cell line MDA-MB-231, the human malignant brain tumor cell line DBTRG, the human pancreatic cancer cell line AsPC1 and the human ovarian cancer cell line SKOV3 are seeded in a 12-well plate at a density of 1×10^5 cells/well. The cells are subsequently incubated for 24 hours. Each type of the tumor cells is divided into six groups. In a control, the tumor cells are untreated. In a group 1, the tumor cells are treated with the chemotherapy drug. In a group 2, the tumor cells are treated with the parental NK-92 cell line. In a group 3, the tumor cells are treated with the parental NK-92 cell line and the chemotherapy drug. In the groups 2 and 3, the number of the parental NK-92 cell line treated is 1×10^5 cells. In a group 4, the tumor cells are treated with the chimeric antigen receptor expressing cell of Example 1. […] The treated cells are stained with Annexin V-FITC and propidium iodide (PI), and the apoptosis and the death of the tumor cells are detected by the flow cytometry. The sum of the percentage of cells stained with Annexin V-FITC and/or PI (that is the percentage of cells in the first quadrant, the second quadrant, and the fourth quadrant of the bivariate flow cytometry scatter plot) are calculated to obtain the cytotoxicity. The results of the cytotoxicity are counted after the three independent trials in each group. […]

[5] = tested on: HLA-G expression level on the plasma membrane of the human breast cancer cell line MDA-MB-231; test: HLA-G expression level of tumor cells treated with chemotherapy drug, immunofluorescence staining assay; conditions: MDA-MB-231, doxorubicin 200 nM, 48 hours, vs untreated control
Procedure: as §1, §2, §3

[6] = tested on: HLA-G expression of the human breast cancer cell line MDA-MB-231; test: HLA-G expression of tumor cells treated with chemotherapy drug, flow cytometry; conditions: MDA-MB-231, doxorubicin 200 nM, 48 hours; control 12.27%
Procedure: as §1, §2, §3

[7] = tested on: human breast cancer cell line MDA-MB-231; test: Tumor cell death (cytotoxicity), Annexin V-FITC and PI staining, flow cytometry; conditions: group 1: chemotherapy drug alone, doxorubicin 200 nM; control about 10%
Procedure: (§8) The cells are subsequently incubated for 24 hours. […] In a control, the tumor cells are untreated.
as §8, §8

[8] = tested on: HLA-G expression of the human pancreatic cancer cell line AsPC1; test: HLA-G expression of tumor cells treated with chemotherapy drug, flow cytometry; conditions: AsPC1, gemcitabine 20 μM, 48 hours; control 13.18%
Procedure: as §4, §5, §6

[9] = tested on: human pancreatic cancer cell line AsPC1; test: Tumor cell death (cytotoxicity), Annexin V-FITC and PI staining, flow cytometry; conditions: group 1: chemotherapy drug alone, gemcitabine 20 μM
Procedure: as §7

Cn1nnc2c(C(N)=O)ncn2c1=O [temozolomide]
mean fluorescence intensity (MFI) of HLA-G [1]: 22.33%

N.N.O=C([O-])C1(C(=O)[O-])CCC1.[Pt+2] [carboplatin]
HLA-G expression level on the plasma membrane [2]: increase
mean fluorescence intensity (MFI) of HLA-G [3]: 38.58%
death rate of SKOV3 [4]: increased, but there is no statistically significant difference compared to the control; also recorded: comparable to that of the control

COc1cccc2c1C(=O)c1c(O)c3c(c(O)c1C2=O)C[C@@](O)(C(=O)CO)C[C@@H]3O[C@H]1C[C@H](N)[C@H](O)[C@H](C)O1 [doxorubicin]
HLA-G expression level on the plasma membrane [5]: increase
mean fluorescence intensity (MFI) of HLA-G [6]: 64.45%
death rate of MDA-MB-231 [7]: increased, but there is no statistically significant difference compared to the control

Nc1ccn([C@@H]2O[C@H](CO)[C@@H](O)C2(F)F)c(=O)n1 [gemcitabine]
mean fluorescence intensity (MFI) of HLA-G [8]: 41.44%
death rate of AsPC1 [9]: increased, but there is no statistically significant difference compared to the control; also recorded: comparable to that of the control
